Data reported in US10005769B2, “2,3-dihydrobenzofuran-5YL compounds as DYRK kinase inhibitors” (4SC DISCOVERY GMBH, priority 2013, dated 2018).

What was measured:
[1] = tested on: Hedgehog signaling pathway (Gli Reporter - NIH3T3 cell line); assay: Hedgehog Reporter Assay (Gli-Reporter, luciferase, mSHH stimulated); format: cell-based, murine; conditions: Mus musculus; Gli Reporter NIH3T3 cells, 1 μg/ml mSHH, 24 h
Experimental: In order to investigate the potency of test compounds to inhibit the Hedgehog signaling pathway, a Gli-Reporter assay was performed. The “Gli Reporter-NIH3T3” cell line contains the firefly luciferase gene under the control of Gli responsive elements stably integrated into murine NIH3T3 cells (cells purchased from AMS Biotechnology ltd., 184 Milton Park, Abingdon OX14 4SE, U.K.). The luciferase expression correlates with activation of the hedgehog signaling pathway. This cell line is validated for its response to stimulation with murine Sonic Hedgehog and to treatment with inhibitors of the hedgehog signaling pathway. A multiplexed viability assay was used to discriminate inhibition on the pathway activity from cell toxicity. Growth Medium: DMEM (Dulbecco's Modified Eagle Medium); 10% Fetal Calf Serum; 1% Penicillin/Streptomycin; 500 μg/ml Geneticin (G418 Stock 50 mg/ml). Assay Medium: Opti-MEM® Reduced Serum Medium; 0.5% Calf Serum; 1% non-essential amino acids; 1 mM Na-pyruvate; 10 mM HEPES; 1% Penicillin/Streptomycin. 25,000 cells per well were seeded into a white 96 well plate in 100 μl growth medium and incubated over night at 37° C. and 5% CO2. After removing the supernatant the test compounds and controls were added in different concentrations in a final volume of 45 μl and incubated for 1 h at 37° C. and 5% CO2. For the stimulation of the Hedgehog pathway 5 μl of 10 μg/ml concentrated murine SHH (or mSHH; murine sonic hedgehog protein) was added to the cells. A final concentration of 1 μg/ml mSHH and 0.1% DMSO was reached per well. After incubation for 24 h at 37° C. the cells were investigated for viability and reporter activity. Viability: For the determination of the viability of the treated cells the CellTiter-FluorTM Kit from Promega comprising the fluorogenic, cell-permeant peptide substrate ([…]-aminofluorocoumarin GF-AFC was used. Roughly, only proteases of viable cells are able to cleave the GF-AFC. By this cleavage the fluorescent AFC is set free and can be detected in a fluorescence reader. For this assay 10 μl of GF-AFC substrate (CellTiter-FluorTM, Promega #G6082) was diluted in 2 ml assay buffer from the CellTiter-FluorTM Kit and 10 μl of this dilution was added per well to the cells and incubated for 30 min at 37° C. The fluorescence was measured with an excitation of 380-400 nm and an emission of 505 nm. Reporter activity: The firefly luciferase reporter activity was detected with the ONE-GloTM Luciferase Assay System from Promega. For this assay 50 μl ONE-Glo luciferase reagent (Promega #E6120, contains cell lysis buffer and luciferin) was added to each well and incubated at room temperature for 5 min. Luminescence was detected in a plate reader and served as a measure for reporter activity.

[2] = tested on: L3.6pl human metastatic pancreatic adenocarcinoma cells; assay: Xenograft assay with L3.6pl cancer cells; format: in vivo, Foxn1nu/nu nude mice; conditions: 100 mg/kg/day p.o. daily
Experimental: The x-axis reflects the time [in days], while the y-axis reflects the tumor volume [in mm^3]. A xenograft assay with L3.6pl cancer cells was prepared as follows: 1×10^5 L3.6pl (Bruns et al., 1999) human metastatic pancreatic adenocarcinoma cells in 25% Matrigel (BD Biosciences, NJ, USA) were injected subcutaneously into the lower flanks of Foxn1nu/nu nude mice (Charles River Laboratories, USA). The compound of example 5 was administered p.o. daily with 100 mg/kg/day, dissolved in a mixture of 20% Glycofurol 75, 20% Oleic acid and 60% Olive oil; administration was started at the same day of injection of tumor cells. As a negative control, separate aminals were administered solvent vehicle without active compound. The tumor volume was measured with a caliper and calculated according to the formula [4/3×π×(length/2)×(width/2)×(height/2). Results are shown in FIG. 1, the p value was <0.01.

DYRK1B = DYRK1B (Homo sapiens (Human), UniProt Q9Y463); assay: DYRK1B Kinase Assay (33P ATP, DYRKtide substrate, Reaction Biology Corp.); format: biochemical; conditions: 0.3 nM DYRK1B, 20 μM DYRKtide, 10 μM ATP, 25° C., 120 min
Experimental: The assay was carried out by Reaction Biology Corp., […], Pa., USA according to specifications by Reaction Biology Corp., as detailed herein below and further described in Anastassiadis et al., Nature Biotechnology, 29 (2011) 1039-1045. The substrate DYRKtide (synthetic peptide RRRFRPASPLRGPPK) was dissolved in freshly prepared Base Reaction Buffer (20 mM Hepes (pH 7.5), 10 mM MgCl2, 1 mM EGTA, 0.02% Brij35, 0.02 mg/ml BSA, 0.1 mM Na3VO4, 2 mM DTT, 1% DMSO) at a concentration of 20 μM. DYRK1B was added to the substrate solution in a concentration of 0.3 nM and gently mixed. Dilution series of the compounds according to the present invention in DMSO were prepared. Each dilution was added to a batch of the above reaction mix, followed 20 min later by addition of a mixture of ATP and ^33P ATP (specific activity 0.01 μCi/μl final) to a final concentration of 10 μM. Reactions were carried out at 25° C. for 120 min, followed by spotting the reactions onto P81 ion exchange filter paper. Unbound phosphate was removed by extensive washing of the filters in 0.75% phosphoric acid. […] IC50 values and curve fits were obtained using Prism (Graph Pad Software). DYRK1B used in the above assays are further described in the below table: [table] Exemplary compound dilution series, final concentrations of compound in the assay vessel; the individual concentrations and the range of concentrations covered by the dilution series may differ for each compound, as long as enough data points are obtained to determine the compound's IC50: DYRK 1[…].

Chain of DYRK1B (Q9Y463 whole entry): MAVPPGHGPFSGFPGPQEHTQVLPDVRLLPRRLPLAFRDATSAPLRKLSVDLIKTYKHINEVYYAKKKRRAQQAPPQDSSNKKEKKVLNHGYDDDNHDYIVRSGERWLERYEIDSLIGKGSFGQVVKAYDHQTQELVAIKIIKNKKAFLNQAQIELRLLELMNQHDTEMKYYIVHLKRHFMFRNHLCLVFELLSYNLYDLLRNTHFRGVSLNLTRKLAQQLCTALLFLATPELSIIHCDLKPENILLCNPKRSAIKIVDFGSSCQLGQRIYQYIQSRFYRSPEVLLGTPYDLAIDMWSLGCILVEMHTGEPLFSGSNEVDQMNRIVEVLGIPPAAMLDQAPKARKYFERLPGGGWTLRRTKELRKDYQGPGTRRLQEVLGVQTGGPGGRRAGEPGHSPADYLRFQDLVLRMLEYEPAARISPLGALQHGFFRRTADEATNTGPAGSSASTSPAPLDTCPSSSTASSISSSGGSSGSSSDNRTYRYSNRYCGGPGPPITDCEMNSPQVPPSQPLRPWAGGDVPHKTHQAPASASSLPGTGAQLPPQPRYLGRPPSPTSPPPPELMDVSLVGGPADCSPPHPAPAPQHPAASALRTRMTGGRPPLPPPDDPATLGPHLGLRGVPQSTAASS

| SMILES | IC50 [1] [µM] | animals' weight over the course of the experiment [2] | IC50 (DYRK1B) [µM] |
| --- | --- | --- | --- |
| O=C(Nc1nc2cc(C(F)(F)F)ccc2[nH]1)c1csc(-c2ccc3c(c2)CCO3)n1 [Compound 5, 2-(2,3-Dihydrobenzofuran-5-yl)-N-(5-(trifluoromethyl)-1H-benzo[d]imidazol-2-yl)thiazole-4-carboxamide] | 1 to 3 | essentially unchanged | 0.0909 |
| COc1cccc(-c2c[nH]c(NC(=O)c3csc(-c4ccc5c(c4)CCO5)n3)n2)c1 [Compound 13, 2-(2,3-Dihydrobenzofuran-5-yl)-N-(4-(3-methoxyphenyl)-1H-imidazol-2-yl)thiazole-4-carboxamide] | 1 to 3 | – | 0.111 |
| O=C(Nc1nc2cc(OC(F)(F)F)ccc2[nH]1)c1csc(-c2ccc3c(c2)CCO3)n1 [Compound 14, 2-(2,3-Dihydrobenzofuran-5-yl)-N-(6-(trifluoromethoxy)-1H-benzo[d]imidazol-2-yl)thiazole-4-carboxamide] | 1 to 3 | – | 0.0294 |
| O=C(Nc1ccccn1)c1csc(-c2ccc3c(c2)CCO3)n1 [Compound 17, 2-(2,3-Dihydrobenzofuran-5-yl)-N-(pyridin-2-yl)thiazole-4-carboxamide] | 3 to 10 | – | 0.0294 |
| CNC(=O)c1n[nH]c(NC(=O)c2csc(-c3ccc4c(c3)CCO4)n2)n1 [Compound 19, 2-(2,3-Dihydrobenzofuran-5-yl)-N-(3-(methylcarbamoyl)-1H-1,2,4-triazol-5-yl)thiazole-4-carboxamide] | 1 to 3 | – | 0.00968 |
| O=C(Nc1nc2cc(C(=O)N3CCCC3)ccc2[nH]1)c1csc(-c2ccc3c(c2)CCO3)n1 [Compound 22, 2-(2,3-Dihydrobenzofuran-5-yl)-N-(5-(pyrrolidine-1-carbonyl)-1H-benzo[d]imidazol-2-yl)thiazole-4-carboxamide] | < 1 | – | 0.000852 |
| COCCNC(=O)c1ccc2[nH]c(NC(=O)c3csc(-c4ccc5c(c4)CCO5)n3)nc2c1 [Compound 23, 2-(2,3-Dihydrobenzofuran-5-yl)-N-(5-((2-methoxyethyl)carbamoyl)-1H-benzo[d]imidazol-2-yl)thiazole-4-carboxamide] | < 1 | – | 0.000699 |
| O=C(Nc1nc(C(=O)NC2CC2)n[nH]1)c1csc(-c2ccc3c(c2)CCO3)n1 [Compound 25, N-(3-(Cyclopropylcarbamoyl)-1H-1,2,4-triazol-5-yl)-2-(2,3-dihydrobenzofuran-5-yl)thiazole-4-carboxamide] | 1 to 3 | – | 0.00351 |
| O=C(Nc1nnc(C(=O)N2CCOCC2)[nH]1)c1csc(-c2ccc3c(c2)CCO3)n1 [Compound 26, 2-(2,3-Dihydrobenzofuran-5-yl)-N-(5-(morpholine-4-carbonyl)-4H-1,2,4-triazol-3-yl)thiazole-4-carboxamide] | 3 to 10 | – | 0.085 |
| CN1CCN(C(=O)c2nnc(NC(=O)c3csc(-c4ccc5c(c4)CCO5)n3)[nH]2)CC1 [Compound 27, 2-(2,3-Dihydrobenzofuran-5-yl)-N-(5-(4-methylpiperazine-1-carbonyl)-4H-1,2,4-triazol-3-yl)thiazole-4-carboxamide] | 3 to 10 | – | 0.0498 |
| O=C(Nc1nnc(C(=O)N2CCCC2)[nH]1)c1csc(-c2ccc3c(c2)CCO3)n1 [Compound 28, 2-(2,3-Dihydrobenzofuran-5-yl)-N-(5-(pyrrolidine-1-carbonyl)-4H-1,2,4-triazol-3-yl)thiazole-4-carboxamide] | 3 to 10 | – | 0.0471 |
| CN(C)C(=O)c1n[nH]c(NC(=O)c2csc(-c3ccc4c(c3)CCO4)n2)n1 [Compound 29, 2-(2,3-Dihydrobenzofuran-5-yl)-N-(5-(dimethylcarbamoyl)-4H-1,2,4-triazol-3-yl)thiazole-4-carboxamide] | 3 to 10 | – | 0.072 |
| O=C(Nc1nc(SCc2ccccc2)n[nH]1)c1csc(-c2ccc3c(c2)CCO3)n1 [Compound 32, N-(3-(Benzylthio)-1H-1,2,4-triazol-5-yl)-2-(2,3-dihydrobenzofuran-5-yl)thiazole-4-carboxamide] | 3 to 10 | – | 1.35 |
| O=C(NCC1CCCO1)c1ccc2[nH]c(NC(=O)c3csc(-c4ccc5c(c4)CCO5)n3)nc2c1 (stereo not drawn) [Compound 35, 2-(2,3-Dihydrobenzofuran-5-yl)-N-(5-(((tetrahydrofuran-2-yl)methyl)carbamoyl)-1H-benzo[d]imidazol-2-yl)thiazole-4-carboxamide] | < 1 | – | < 0.0005 |
| CN1CCN(c2ccc3nc(NC(=O)c4csc(-c5ccc6c(c5)CCO6)n4)sc3c2)CC1 [Compound 41, 2-(2,3-Dihydrobenzofuran-5-yl)-N-(6-(4-methylpiperazin-1-yl)benzo[d]thiazol-2-yl)thiazole-4-carboxamide] | 3 to 10 | – | 0.0195 |
| Cc1n[nH]c(NC(=O)c2csc(-c3ccc4c(c3)CCO4)n2)n1 [Compound 44, 2-(2,3-Dihydrobenzofuran-5-yl)-N-(3-methyl-1H-1,2,4-triazol-5-yl)thiazole-4-carboxamide] | 3 to 10 | – | 0.0601 |
| O=C(Nc1nc(-c2cccnc2)n[nH]1)c1csc(-c2ccc3c(c2)CCO3)n1 [Compound 45, 2-(2,3-Dihydrobenzofuran-5-yl)-N-(3-(pyridin-3-yl)-1H-1,2,4-triazol-5-yl)thiazole-4-carboxamide] | 1 to 3 | – | 0.00281 |
| O=C(Nc1nc(-c2ccco2)n[nH]1)c1csc(-c2ccc3c(c2)CCO3)n1 [Compound 46, 2-(2,3-Dihydrobenzofuran-5-yl)-N-(3-(furan-2-yl)-1H-1,2,4-triazol-5-yl)thiazole-4-carboxamide] | 3 to 10 | – | 0.0153 |
| CCN1CCN(C(=O)c2ccc3[nH]c(NC(=O)c4csc(-c5ccc6c(c5)CCO6)n4)nc3c2)CC1 [Compound 47, 2-(2,3-Dihydrobenzofuran-5-yl)-N-(5-(4-ethylpiperazine-1-carbonyl)-1H-benzo[d]imidazol-2-yl)thiazole-4-carboxamide] | < 1 | – | 0.00217 |
